“Also recorded” adds a separate entry of the source. Read-outs that look alike come from different tables or passages of the source. Values belong to the compound of their own block, whether it stands above or below them.
Tests used:
[1] = MTX/GLPG3970 DDI study: plasma pharmacokinetics; format: in vivo, human; conditions: for Intra‐participant variability of AUC0–∞ and C max: MTX/GLPG3970 DDI study; for AUC(0-inf): AUC0–∞
[2] = cited from earlier work
[3] = tested on: breast cancer resistance protein (BCRP); conditions: at clinically relevant concentrations; ref unpublished data; cited from earlier work
[4] = cited from earlier work; remark: listed apart in the source
[5] = SSZ/GLPG3970 DDI study: plasma pharmacokinetics; format: in vivo, human; conditions: for AUC(0-t) / AUC(0-inf) / Cmax: human, plasma, oral, geometric LS mean (95% CI); for AUC(0-t): AUC0–t; for AUC(0-inf): AUC0–∞; for Cmax: C max
[6] = Day 5 (GLPG3970 + MTX) vs. day 1 (MTX alone)
[7] = GLPG3970 350 mg + MTX 7.5 mg, Day 5 (n = 14)
[8] = MTX 7.5 mg alone, Day 1 (n = 15)
[9] = Day 5 (GLPG3970 + SSZ) vs. day 1 (SSZ alone)
[10] = Day 9 (GLPG3970 2 h after SSZ) vs. day 1 (SSZ alone)
[11] = 1000 mg, SSZ 1,000 mg alone, Day 1 (n = 8)
[12] = GLPG3970 350 mg 2 h after SSZ 1,000 mg, Day 9 (n = 7)
[13] = GLPG3970 350 mg + SSZ 1,000 mg, Day 5 (n = 7)

SMILES: COc1cc(-c2cnc3cc(OCCN4CCOCC4)ccn23)cc2c1C(=O)N(CC(F)(F)F)CC2 [GLPG3970]
- Dose proportionality of exposure (AUC) ([2]; across the evaluated dose range): increased more than the dose proportionally
- Effect of food consumption on C max ([2]; preliminary work, ref not given): reduced
- Tolerability ([2]; single and multiple ascending doses, healthy volunteers): well tolerated
- Inhibition of BCRP in vitro [3]: strongly inhibits; also recorded: strong inhibition

SMILES: Nc1ccc(S(=O)(=O)Nc2ccccn2)cc1 [SPD, sulfapyridine]
- mean plasma t 1/2 ([4]; fast acetylation phenotype (NAT2)): 10.4 h
- mean plasma t 1/2 ([4]; slow acetylation phenotype (NAT2)): 14.8 h
- AUC0–t, geometric LS mean ratio (90% CI) [5, 9]: 90 (81, 100) %
- AUC0–∞, geometric LS mean ratio (90% CI) [5, 9]: 90 (81, 101) %
- C max, geometric LS mean ratio (90% CI) [5, 9]: 90 (78, 102) %
- AUC0–t, geometric LS mean ratio (90% CI) [5, 10]: 89 (80, 99) %
- AUC0–∞, geometric LS mean ratio (90% CI) [5, 10]: 89 (80, 100) %
- C max, geometric LS mean ratio (90% CI) [5, 10]: 94 (82, 107) %
- Effect of GLPG3970 on SPD exposure ([5]; SSZ with GLPG3970 (simultaneously or 2 h before) vs. SSZ alone): similar; also recorded: no relevant effect
- AUC(0-t) [5, 11]: 119 µg·h/mL
- AUC(0-inf) [5, 11]: 125 µg·h/mL
- Cmax [5, 11]: 5680 ng/mL
- AUC(0-t) [5, 12]: 106 µg·h/mL
- AUC(0-t) [5, 13]: 107 µg·h/mL
- AUC(0-inf) [5, 12]: 112 µg·h/mL
- AUC(0-inf) [5, 13]: 113 µg·h/mL
- Cmax [5, 12]: 5310 ng/mL
- Cmax [5, 13]: 5090 ng/mL

SMILES: O=C(O)c1cc(/N=N/c2ccc(S(=O)(=O)Nc3ccccn3)cc2)ccc1O [SSZ, sulfasalazine, reference compound]
- Time at which systemic concentrations are detectable post‐dosing ([4]; oral, literature, ref not given): ~ 1.5 hours
- t max ([4]; post‐dosing, oral SSZ, literature, ref not given): 3 to 12 h
- AUC(0-t) [5, 11]: 59.3 µg·h/mL
- AUC(0-inf) [5, 11]: 59.8 µg·h/mL
- Cmax [5, 11]: 7270 ng/mL
- AUC(0-t) [5, 12]: 109 µg·h/mL
- AUC(0-t) [5, 13]: 108 µg·h/mL
- AUC(0-inf) [5, 12]: 110 µg·h/mL
- AUC(0-inf) [5, 13]: 109 µg·h/mL
- Cmax [5, 12]: 13100 ng/mL
- Cmax [5, 13]: 12000 ng/mL

The next lines start with results.

- AUC0–t, geometric LS mean ratio (90% CI) [1, 6]: 80 (69, 92) %
- C max, geometric LS mean ratio (90% CI) [1, 6]: 77 (72, 82) %
- AUC0–t, geometric LS mean (95% CI) [1, 7]: 392 (332, 463) ng.h/mL
- C max, geometric LS mean (95% CI) [1, 7]: 27.0 (23.9, 30.4) ng/mL
- AUC0–t, geometric LS mean (95% CI) [1, 8]: 490 (418, 576) ng.h/mL
- C max, geometric LS mean (95% CI) [1, 8]: 35.0 (31.1, 39.4) ng/mL
- Reduction in AUC0–t ([1]; MTX + GLPG3970 vs. MTX alone): 20%
- Reduction in C max ([1]; MTX + GLPG3970 vs. MTX alone): 23%
- Reduction in exposure ([1]; MTX + GLPG3970 vs. MTX alone): 20–23%
- Intra‐participant variability of AUC0–∞ and C max [1]: 10–22%
SMILES: CN(Cc1nc2c(N)nc(N)nc2[nH]c1=O)c1ccc(C(=O)N[C@@H](CCC(=O)O)C(=O)O)cc1 [7‐OH‐MTX, 7‐hydroxy‐methotrexate]

- AUC0–t, geometric LS mean (95% CI) [1, 7]: 583 (523, 649) ng.h/mL
- Time after which plasma concentrations fell below the LLOQ ([1]; MTX 7.5 mg, LLOQ 5 ng/mL): 12 h
- Intra‐participant variability of AUC0–∞ and C max [1]: 10–22%
- AUC(0-t) ([1]; human, plasma, oral, 7.5 mg, AUC0–t, geometric LS mean (95% CI), MTX 7.5 mg alone, Day 1 (n = 15)): 0.627 µg·h/mL
- AUC(0-inf) ([1]; human, plasma, oral, 7.5 mg, geometric LS mean (95% CI), MTX 7.5 mg alone, Day 1 (n = 13)): 0.677 µg·h/mL
- AUC(0-inf) ([1]; human, plasma, oral, geometric LS mean (95% CI), GLPG3970 350 mg + MTX 7.5 mg, Day 5 (n = 12)): 0.614 µg·h/mL
- Cmax ([1]; human, plasma, oral, C max, geometric LS mean (95% CI), GLPG3970 350 mg + MTX 7.5 mg, Day 5 (n = 14)): 193 ng/mL
SMILES: CN(Cc1cnc2nc(N)nc(N)c2n1)c1ccc(C(=O)N[C@@H](CCC(=O)O)C(=O)O)cc1 [MTX, methotrexate, reference compound]
- fraction of dose metabolized in the liver [4]: Approximately 10%
- mean t 1/2 [4]: 3 to 10 h
- bioavailability ([4]; oral dosing): ~ 60%
- excreted unchanged in urine ([4]; within 24 hours): 80–90%

Source: paper PMC11739741 (Clinical Pharmacology and Therapeutics, 2024)
